# According to patent publication EP1144412B1, “IMMUNOSUPPRESSIVE EFFECTS OF PTERIDINE DERIVATIVES” (4 AZA Bioscience nv, priority 1998, dated 2000):
# Where two headings read alike, the source gives them in different places.
# Tests used:
# [1] = tested on: Peripheral blood mononuclear cells (PBMC); assay: Mixed lymphocyte reaction (MLR), [3H]-thymidine incorporation; format: cell-based; conditions: Homo sapiens
# From the text: (§1) Various models may be used for testing an immunosuppressive effect. In vivo, for example, different transplantation models are available. They are strongly influenced by different immunogenicities, depending on the donor and recipient species used and depending on the nature of the transplanted organ. The survival time of transplanted organs can thus be used to measure the suppression of the immune response. In vitro, there exist also various models. The most used are lymphocyte activation tests. Usually activation is measured via lymphocyte proliferation. Inhibition of proliferation thus always means immunosuppression under the experimental conditions applied. There exist different stimuli for lymphocyte activation: • coculture of lymphocytes of […] (MLR = mixed lymphocyte reaction): lymphocytes expressing different minor and major antigens of the HLA-DR type (= alloantigens) activate each other non-specifically. • CD3 assay: here there is an activation of the T-lymphocytes via an exogenously added antibody (OKT3). This antibody reacts against the CD3 molecule located on the lymphocyte membrane. This molecule has a costimulatory function. […] This molecule is also located on the lymphocyte membrane, and delivers strong costimulatory signals.
# Peripheral blood mononuclear cells (PBMC) were isolated from heparinized peripheral blood by density gradient centrifugation over Lymphoprep (Nycomed, Maorstua, Norway). Allogeneic PBMC or EBV-transformed human B cells [RPMI1788 (ATCC name CCL156)] which strongly express B7-1 and B7-2 were used as stimulator cells after irradiation with 30 Gy. MLR was performed in triplicate wells. After 5 days incubation at 37EC, 1 µCi [^3H]-thymidine was added to each cup. After a further 16 hours incubation, cells were harvested and counted in a β-counter.
# The percent suppression of proliferation by drugs was counted using the formula Percent inhibition =((cpm + drugs) - cpm Cult. Med)/((cpm - drugs) - cpm Cult. Med.)x 100 [formula]
# Highly purified T cells [2] = assay: T cell proliferation induced by anti-CD3 mAb + PMA (BrdU incorporation); format: cell-based, Human; conditions: Homo sapiens, T-cell
# From the text: as §1
# (§2) T cells were purified by removing non-T cells. Briefly,monocytes were removed by cold agglutination. The resulting lymphoid cells were further purified by a cell enrichment immunocolumn [Cellect Human T (Biotex, Edmonton, Alberta, Canada)] by a process of negative selection.
# (§3) Measurements of T cell proliferations induced by anti-CD3 mAb + PMA or anti-CD28 mAb + PMA
# (§4) Highly purified T cells (10^6/ml) were stimulated by immobilized anti-CD3 àr anti-CD28 mAb in the presence of PMA. Anti-CD3 mAb (CLB-CD3; CLB, Amsterdam, The Netherlands) were fixed on the 96-microwell plates by incubating the wells with 50 µl of mAb solution (1/800 dilution in culture medium). Anti-CD28 mAb (CLB-CD28; CLB, Amsterdam, The Netherlands) 50 µl (1/650 dilution in culture medium) was added directly to the wells. Further, 20 µl PMA (Sigma, St. Louis, MO, USA) solution (final concentration: 0.5 ng/ml) was added. Subsequently, 20 µl of immunosuppressants were added by serial dilution in triplicate wells. Finally 100 µl of the T cell suspension (10^6/ml) was added. After 48-hour incubation at 37EC in 5% CO2 20 Φl BrdU (100 ΦM solution) (Cell Proliferation Elisa, Boehringer-Mannheim Belgium) was added to each well. After a further overnight incubation the T cell proliferation was measured using a colorimetric immunoassay for qualification of cell proliferation based on measurements of the incorporation of BrdU during DNAsynthesis. The optical density (OD) was measured by a Behring EL311 plate reader at 450 nm (reference wavelength: 690 nm). The percent suppression of proliferation by drugs was counted using the formula: Per cent inhibition =((OD + drugs) - (OD Cult. Med.))/((OD - drugs) - (OD Cult. Med.))x 100 [formula]
# Highly purified T cells [3] = assay: T cell proliferation induced by anti-CD28 mAb + PMA (BrdU incorporation); format: cell-based, Human; conditions: Homo sapiens, T-cell
# From the text: as §1, §2, §3, §4
# [4] = Table II, read-out: IC50 in µM of pteridine derivative MLR
# [5] = untitled structure table, no unit printed there, same values in Table II as IC50 in µM, read-out: MLR
# [6] = Table II, read-out: IC50 in µM of pteridine derivative ACD3
# [7] = untitled structure table, no unit printed there, same values in Table II as IC50 in µM, read-out: aCD3
# [8] = Table II, read-out: IC50 in µM of pteridine derivative aCD28
# [9] = untitled structure table, no unit printed there, same values in Table II as IC50 in µM, read-out: aCD28
# [10] = untitled structure table, IC50 subranges, read-out: MLR
# [11] = untitled structure table, IC50 subranges, read-out: aCD3
# [12] = untitled structure table, IC50 subranges, read-out: aCD28
Compound,"IC50 [1, 4]","IC50 [1, 5]",IC50 (Highly purified T cells [2]; [6]),IC50 (Highly purified T cells [2]; [7]),IC50 (Highly purified T cells [3]; [8]),IC50 (Highly purified T cells [3]; [9]),"IC50 [1, 10]",IC50 (Highly purified T cells [2]; [11]),IC50 (Highly purified T cells [3]; [12]),"IC50 (Highly purified T cells [2]; Table III, comparison immunosuppressants, read-out: IC50 aCD3)","IC50 (Highly purified T cells [3]; Table III, comparison immunosuppressants, read-out: IC50 aCD28)","IC50 ([1]; Table IV, known pteridine derivatives, IC50 subranges, read-out: MLR)","IC50 (Highly purified T cells [2]; Table IV, known pteridine derivatives, IC50 subranges, read-out: aCD3)","IC50 (Highly purified T cells [3]; Table IV, known pteridine derivatives, IC50 subranges, read-out: aCD28)"
"CCCN(CCC)c1nc(N)nc2ncc(-c3ccc(OC)cc3)nc12 [Compound 31, 2-amino-4-dipropylamino-6-(4-methoxyphenyl)pteridine]",8.5 µM,8.5 µM,5.7 µM,5.7 µM,2.8 µM,2.8 µM,–,–,–,–,–,–,–,–
"Nc1nc(N2CCOCC2)c2nc(-c3ccc4c(c3)OCO4)cnc2n1 [Compound 56, 2-amino-4-morpholino-6-(3,4-formylidene-3,4-dihydroxyphenyl)pteridine]",–,–,–,–,–,–,1 to 15 µM,16 to 150 µM,16 to 150 µM,–,–,–,–,–
"CCOc1nc(N)nc2ncc(-c3ccccc3)nc12 [Compound 61, 2-amino-4-ethoxy-6-phenylpteridine]",–,–,–,–,–,–,1 to 15 µM,1 to 15 µM,1 to 15 µM,–,–,–,–,–
"O=c1[nH]cc(F)c(=O)[nH]1 [Compound 5-FU, 5-Fluoro-uracil, reference compound]",–,–,–,–,–,–,–,–,–,50 µM,17 µM,–,–,–
"Nc1nc(NO)c2nc(-c3ccccc3)cnc2n1 [Compound 13, 2-amino-4-hydroxylamino-6-phenylpteridine]",140 µM,140 µM,> 200 µM,> 200 µM,> 200 µM,> 200 µM,–,–,–,–,–,–,–,–
"CCCN(CCC)c1nc(N)nc2ncc(-c3ccccc3)nc12 [Compound 29, 2-amino-4-dipropylamino-6-phenylpteridine]",15 µM,15 µM,25 µM,–,25 µM,25 µM,–,–,–,–,–,–,–,–
"Nc1nc(N2CCCCC2)c2nc(-c3ccc(Cl)cc3)cnc2n1 [Compound 38, 2-amino-4-piperidino-6-(4-chlorophenyl)pteridine]",15 µM,15 µM,70 µM,70 µM,25 µM,25 µM,–,–,–,–,–,–,–,–
"CC(C)C(=O)NCc1cnc2nc(N)nc(N)c2n1 [CH2 NH CO CH (CH3)2, reference compound]",–,–,–,–,–,–,–,–,–,–,–,> 151 µM,> 151 µM,> 151 µM
"Cc1nc2nc(N)nc(N)c2nc1-c1ccccc1 [Compound 6, 2,4-diamino-6-phenyl-7-methylpteridine]",> 200 µM,> 200 µM,> 200 µM,> 200 µM,> 200 µM,> 200 µM,–,–,–,–,–,–,–,–
"COc1ccc(-c2cnc3nc(N)nc(N(Cc4ccccc4)Cc4ccccc4)c3n2)cc1 [Compound 27, 2-amino-4-dibenzylamino-6-(4-methoxyphenyl) pteridine]",50 µM,50 µM,20 µM,20 µM,15 µM,15 µM,–,–,–,–,–,–,–,–
"COc1ccc(-c2cnc3nc(NCCO)nc(N)c3n2)cc1 [Compound 12, 2-hydroxyethylamino-4-amino-6-(4-methoxyphenyl)pteridine]",> 200 µM,> 200 µM,> 200 µM,> 200 µM,160 µM,160 µM,–,–,–,–,–,–,–,–
"CCN(CC)c1nc(N)nc2ncc(-c3ccc(Cl)cc3)nc12 [Compound 22, 2-amino-4-diethylamino-6-(4-chlorophenyl) pteridine]",17 µM,17 µM,50 µM,50 µM,20 µM,20 µM,–,–,–,–,–,–,–,–
"CCN(CC)c1nc(N)nc2ncc(-c3ccc(OC)c(OC)c3)nc12 [Compound 24, 2-amino-4-diethylamino-6-(3,4-dimethoxyphenyl) pteridine]",0.08 µM,0.08 µM,0.5 µM,0.5 µM,0.1 µM,0.1 µM,–,–,–,–,–,–,–,–
